Data taken from ChEMBL document CHEMBL1201862, “PubChem BioAssay data set” (2004).
Activity calls are given as the source filed them.

Key:
Hexokinase HKDC1 = target: T1, Hexokinase HKDC1 (Homo sapiens, UniProt Q2TB90); test: inhibition of HKDC1 glucose phosphorylation – biochemical, W721R variant, dose response (AID 504729); format: functional
T1 sequence (Q2TB90 whole entry): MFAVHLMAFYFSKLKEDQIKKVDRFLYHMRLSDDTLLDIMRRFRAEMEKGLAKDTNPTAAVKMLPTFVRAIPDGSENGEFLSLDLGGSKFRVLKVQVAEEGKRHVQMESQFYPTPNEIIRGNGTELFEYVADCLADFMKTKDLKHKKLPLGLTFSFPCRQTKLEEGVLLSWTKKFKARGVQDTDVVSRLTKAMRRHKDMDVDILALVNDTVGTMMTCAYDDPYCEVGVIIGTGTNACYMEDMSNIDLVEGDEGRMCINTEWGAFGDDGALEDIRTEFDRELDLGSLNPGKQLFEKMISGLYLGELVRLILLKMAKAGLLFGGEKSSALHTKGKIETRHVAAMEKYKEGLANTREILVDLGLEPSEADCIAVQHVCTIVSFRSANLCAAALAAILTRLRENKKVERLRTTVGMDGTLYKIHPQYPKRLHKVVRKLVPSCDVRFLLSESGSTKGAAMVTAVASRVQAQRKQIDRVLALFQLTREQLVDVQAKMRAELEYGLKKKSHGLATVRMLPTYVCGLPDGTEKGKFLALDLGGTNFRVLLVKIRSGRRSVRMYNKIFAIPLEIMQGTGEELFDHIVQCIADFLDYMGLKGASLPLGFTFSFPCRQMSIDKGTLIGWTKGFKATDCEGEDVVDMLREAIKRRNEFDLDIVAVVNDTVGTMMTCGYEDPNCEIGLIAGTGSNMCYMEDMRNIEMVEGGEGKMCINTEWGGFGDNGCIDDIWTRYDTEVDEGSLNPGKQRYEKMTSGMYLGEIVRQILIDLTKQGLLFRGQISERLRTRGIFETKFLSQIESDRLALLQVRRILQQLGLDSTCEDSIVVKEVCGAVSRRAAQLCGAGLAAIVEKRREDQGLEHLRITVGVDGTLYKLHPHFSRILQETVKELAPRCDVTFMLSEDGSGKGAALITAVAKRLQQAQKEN

[1] = target: 1-phosphatidylinositol 4,5-bisphosphate phosphodiesterase gamma-1 (Homo sapiens, UniProt P19174); test: Counterscreen for inhibitors of phospholipase C isozymes (PLC-B3): Fluorescence-based biochemical high throughput dose response assay to identify inhibitors of phospholipase C isozymes (PLC-gamma1).
Sequence of 1-phosphatidylinositol 4,5-bisphosphate phosphodiesterase gamma-1 (P19174 whole entry): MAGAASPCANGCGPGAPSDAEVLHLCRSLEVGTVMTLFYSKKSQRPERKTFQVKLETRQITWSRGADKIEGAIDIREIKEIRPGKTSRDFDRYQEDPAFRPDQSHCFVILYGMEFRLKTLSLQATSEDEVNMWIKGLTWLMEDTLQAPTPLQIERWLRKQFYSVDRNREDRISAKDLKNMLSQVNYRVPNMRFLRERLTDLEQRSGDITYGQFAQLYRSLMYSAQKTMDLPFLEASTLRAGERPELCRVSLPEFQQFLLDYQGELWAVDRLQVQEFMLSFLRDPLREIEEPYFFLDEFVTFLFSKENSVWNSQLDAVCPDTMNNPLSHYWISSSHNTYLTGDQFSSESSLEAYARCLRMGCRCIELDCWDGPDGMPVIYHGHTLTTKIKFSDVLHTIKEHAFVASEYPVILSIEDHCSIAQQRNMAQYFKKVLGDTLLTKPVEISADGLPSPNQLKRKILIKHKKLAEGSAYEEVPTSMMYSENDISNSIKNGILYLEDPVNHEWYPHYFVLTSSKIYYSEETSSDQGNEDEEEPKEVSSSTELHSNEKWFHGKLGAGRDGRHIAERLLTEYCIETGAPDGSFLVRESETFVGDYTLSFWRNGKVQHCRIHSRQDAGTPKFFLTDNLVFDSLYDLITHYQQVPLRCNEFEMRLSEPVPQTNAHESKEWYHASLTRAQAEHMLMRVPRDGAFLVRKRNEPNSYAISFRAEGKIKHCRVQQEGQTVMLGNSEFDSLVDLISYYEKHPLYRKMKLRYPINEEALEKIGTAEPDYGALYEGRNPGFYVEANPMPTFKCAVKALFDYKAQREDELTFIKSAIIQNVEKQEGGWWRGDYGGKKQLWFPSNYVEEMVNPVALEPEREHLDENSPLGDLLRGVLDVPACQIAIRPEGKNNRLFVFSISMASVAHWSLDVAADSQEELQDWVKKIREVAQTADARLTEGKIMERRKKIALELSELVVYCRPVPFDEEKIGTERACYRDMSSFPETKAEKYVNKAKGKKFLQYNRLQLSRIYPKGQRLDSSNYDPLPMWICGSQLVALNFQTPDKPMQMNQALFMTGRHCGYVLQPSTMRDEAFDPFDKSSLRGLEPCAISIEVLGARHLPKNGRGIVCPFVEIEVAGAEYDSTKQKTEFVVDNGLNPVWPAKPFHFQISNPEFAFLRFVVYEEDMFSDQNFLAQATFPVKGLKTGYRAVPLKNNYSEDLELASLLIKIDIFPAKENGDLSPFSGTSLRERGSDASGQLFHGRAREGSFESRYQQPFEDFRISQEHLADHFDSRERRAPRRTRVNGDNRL

HeLa = test: viability loss in HeLa cells – cell-based, 24 h, cherry-picked samples, cytotoxicity control, dose response (AID 504726); format: functional; settings: Homo sapiens;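 note: potency for cytotoxicity as loss of luminescence signal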
[2] = target: T2, Tyrosine-protein phosphatase non-receptor type 7 (Homo sapiens, UniProt P35236); test: redox-active compounds inhibiting HePTP phosphatase – biochemical, fluorescence, mechanism study (AID 2068); format: functional
T2 sequence (P35236 whole entry): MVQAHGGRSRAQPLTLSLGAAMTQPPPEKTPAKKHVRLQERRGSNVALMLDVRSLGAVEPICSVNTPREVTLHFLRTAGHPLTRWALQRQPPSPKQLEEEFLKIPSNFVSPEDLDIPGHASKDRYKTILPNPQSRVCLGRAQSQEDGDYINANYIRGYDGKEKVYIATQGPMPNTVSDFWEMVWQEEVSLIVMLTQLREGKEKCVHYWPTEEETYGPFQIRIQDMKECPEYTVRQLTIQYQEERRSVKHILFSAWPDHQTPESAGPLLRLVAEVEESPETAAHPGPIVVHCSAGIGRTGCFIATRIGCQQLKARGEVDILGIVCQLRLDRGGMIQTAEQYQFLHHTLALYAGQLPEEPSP

[3] = luciferase reporter signal suppression in cells – H4 neuroglioma cells, luminescence, dose response (AID 1990); format: functional, cell-based
[4] = target: T3, Sentrin-specific protease 7 (Homo sapiens, UniProt Q9BQF6); format: functional;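 note: Luminescence-based dose-response confirmation of ultra-high-throughput screening hits, measuring inhibition of SENP7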
T3 sequence (Q9BQF6 whole entry): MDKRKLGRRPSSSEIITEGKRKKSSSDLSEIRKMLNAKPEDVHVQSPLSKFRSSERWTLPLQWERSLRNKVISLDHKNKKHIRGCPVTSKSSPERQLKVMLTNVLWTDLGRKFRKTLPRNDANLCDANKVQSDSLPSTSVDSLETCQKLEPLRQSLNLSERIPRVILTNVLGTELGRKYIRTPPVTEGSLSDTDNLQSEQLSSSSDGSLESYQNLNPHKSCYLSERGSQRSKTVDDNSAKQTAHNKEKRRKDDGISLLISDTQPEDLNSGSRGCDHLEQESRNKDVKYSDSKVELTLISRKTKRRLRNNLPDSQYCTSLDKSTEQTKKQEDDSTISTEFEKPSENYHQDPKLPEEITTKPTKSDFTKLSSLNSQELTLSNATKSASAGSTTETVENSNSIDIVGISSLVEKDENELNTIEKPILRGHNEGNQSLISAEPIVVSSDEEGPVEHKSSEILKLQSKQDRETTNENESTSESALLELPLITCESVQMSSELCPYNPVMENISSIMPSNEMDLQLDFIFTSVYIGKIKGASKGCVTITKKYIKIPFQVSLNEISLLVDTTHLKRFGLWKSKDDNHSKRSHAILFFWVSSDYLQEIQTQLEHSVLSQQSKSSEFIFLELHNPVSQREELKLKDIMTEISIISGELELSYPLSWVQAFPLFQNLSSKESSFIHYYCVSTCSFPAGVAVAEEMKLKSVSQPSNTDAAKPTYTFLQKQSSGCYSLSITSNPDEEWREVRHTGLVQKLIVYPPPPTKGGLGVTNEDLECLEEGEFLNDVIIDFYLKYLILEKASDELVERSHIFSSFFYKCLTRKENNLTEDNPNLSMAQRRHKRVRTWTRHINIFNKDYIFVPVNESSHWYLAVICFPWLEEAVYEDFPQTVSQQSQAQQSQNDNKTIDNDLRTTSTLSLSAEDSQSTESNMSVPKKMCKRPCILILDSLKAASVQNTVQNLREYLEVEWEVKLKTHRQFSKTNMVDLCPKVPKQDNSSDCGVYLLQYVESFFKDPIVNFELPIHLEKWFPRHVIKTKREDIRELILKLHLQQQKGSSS

[5] = target: T2, Tyrosine-protein phosphatase non-receptor type 7; format: functional

In the case of COC(=O)c1cc(C)nc2c1C(=O)C(=O)C=C2N1CCOCC1, the IC50 (Hexokinase HKDC1) is reported as 4.41 µM (active) and the IC50 [1] is reported as 13.7 µM (inactive).

In the case of NS(=O)(=O)c1cc(C(=O)NC2CCSc3ccccc32)ccc1Cl (configuration not stated), the AC50 (HeLa) is reported as > 350 µM (inactive) and the IC50 [2] is reported as 0.066 µM (active).

In the case of O=C1c2ccccc2C(=O)c2[nH]c(O)nc21, the EC50 [3] is reported as 5.93 µM (active).

In the case of CCOC(=O)C1=C(C)OC2(O)c3ccccc3C(=O)C12O (configuration not stated), the IC50 [4] is reported as 3.27 µM (active).

For N#Cc1c(N2CCCC2)nc(N)c2c(N)nc(N3CCCC3)cc12, the IC50 [5] was 74.3 µM (active).
